US7491827B2, “Aryl sulfonamides useful as inhibitors of chemokine receptor activity” (Millennium Pharmaceuticals, Inc., priority 2003, dated 2009)

target: T1, cloned human CCR8 receptor stably expressed in L1.2 cells (Homo sapiens, UniProt P51685); assay: whole cell binding screen: inhibition of biotinylated human I309 binding to CCR8 (FMAT 8100 HTS); conditions: Ki of compounds to inhibit I-309 binding to CCR8, L1.2/hCCR8 cells, biotinylated human I-309, 10 point concentration response starting at 10 μM
T1 construct: expressed in transfected cells
T1 sequence (P51685 whole entry): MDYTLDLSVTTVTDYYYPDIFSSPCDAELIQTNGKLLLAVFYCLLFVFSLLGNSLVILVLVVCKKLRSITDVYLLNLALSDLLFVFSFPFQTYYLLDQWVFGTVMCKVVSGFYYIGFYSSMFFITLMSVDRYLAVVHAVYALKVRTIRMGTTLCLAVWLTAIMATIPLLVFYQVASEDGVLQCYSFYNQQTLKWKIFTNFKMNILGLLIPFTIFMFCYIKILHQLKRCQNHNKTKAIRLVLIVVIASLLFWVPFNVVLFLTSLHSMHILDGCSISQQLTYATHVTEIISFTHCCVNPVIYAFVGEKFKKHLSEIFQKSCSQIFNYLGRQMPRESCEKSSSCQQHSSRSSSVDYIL
Summary of the method: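 Ten-point dilutions, top 10 μM final, were tested for displacing biotin-I309 from hCCR8-transfected L1.2 cells in HEPES-buffered HBSS with BSA and sodium azide, mixing 0.5 h before FMAT 8100 detection. Signals converted to percent inhibition against untreated wells and a 100 nM excess unlabeled I309 control.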

Structure (SMILES) | Ki [nM]
CCCC(=O)N1CCC(NS(=O)(=O)c2ccc(NC(=O)C3CCCC3)c3ccccc23)CC1 [Compound D-18, Cyclopentanecarboxylic acid [4-(1-butyryl-piperidin-4-ylsulfamoyl)-naphthalen-1-yl]-amide] | < 500
Cc1ccccc1C(=O)Nc1ccc(S(=O)(=O)NC2CCN(C(=O)NC(C)C)CC2)c2ccccc12 [Compound C-46, 4-[4-(2-Methyl-benzoylamino)-naphthalene-1-sulfonylamino]-piperidine-1-carboxylic acid isopropylamide] | < 500
CCOC(=O)N1CCC(NS(=O)(=O)c2ccc(C(=O)NC3CCCCC3)c3ccccc23)CC1 [Compound F-3, 4-(4-Cyclohexylcarbamoyl-naphthalene-1-sulfonylamino)-piperidine-1-carboxylic acid ethyl ester] | < 500
COc1ccc(NS(=O)(=O)c2ccc(N3C(=O)c4ccccc4C3=O)c3ccccc23)cc1 [Compound A-2, 4-(1,3-Dioxo-1,3-dihydro-isoindol-2-yl)-naphthalene-1-sulfonic acid (4-methoxyphenyl)-amide] | < 30000

same assay, conditions: L1.2/hCCR8 cells, biotinylated human I-309, 10 point concentration response starting at 10 μM; read-out: Ki of compounds to inhibit I-309 binding to CCR8

Structure (SMILES) | Ki [nM]
CCOC(=O)N1CCC(NS(=O)(=O)c2ccc(CNCc3ccccc3Cl)c3ccccc23)CC1 [Compound G-21, 4-{4-[(2-Chloro-benzylamino)-methyl]-naphthalene-1-sulfonylamino}-piperidine-1-carboxylic acid ethyl ester] | < 500
O=C(Nc1ccc(S(=O)(=O)NC2CCNCC2)c2ccccc12)C1CCCC1 [Compound D-11, Cyclopentanecarboxylic acid [4-(piperidin-4-ylsulfamoyl)-naphthalen-1-yl]-amide] | < 30000
Cc1ccccc1C(=O)Nc1ccc(S(=O)(=O)N[C@H]2CCN(C(=O)OC(C)C)C[C@H]2C)c2ccccc12 (racemic) [Compound C-13, (±)-cis-3-Methyl-4-[4-(2-methyl-benzoylamino)-naphthalene-1-sulfonylamino]-piperidine-1-carboxylic acid isopropyl ester] | < 500
Cc1ccccc1C(=O)Nc1ccc(S(=O)(=O)N[C@@H]2[C@H](C)CN(Cc3ccccc3)C[C@@H]2C)c2ccccc12 [Compound A-46, (±)-(cis, cis)-N-[4-(1-Benzyl-3,5-dimethyl-piperidin-4-ylsulfamoyl)-naphthalen-1-yl]-2-methyl-benzamide] | < 30000
Cc1ccccc1C(=O)Nc1ccc(S(=O)(=O)NC2CCN(C(=O)OC(C)C)CC2)c2c1CCCC2 [Compound E-16, 4-[4-(2-Methyl-benzoylamino)-5,6,7,8-tetrahydro-naphthalene-1-sulfonylamino]-piperidine-1-carboxylic acid isopropyl ester] | < 500
CCOC(=O)N1CCC(NS(=O)(=O)c2cccc3c(C(=O)NC4CCCCC4)cccc23)CC1 [Compound H-25, 4-(5-Cyclohexylcarbamoyl-naphthalene-1-suffonylamino)-piperidine-1-carboxylic acid ethyl ester] | < 1000
CC(C)(C)OC(=O)N1CCC(NS(=O)(=O)c2ccc(NC(=O)c3ccccc3F)c3ccccc23)CC1 [Compound B-15, 4-[4-(2-Fluoro-benzoylamino)-naphthalene-1-sulfonylamino]-piperidine-1-carboxylic acid tert-butyl ester] | < 500
CCCC(=O)N1CCC(NS(=O)(=O)c2ccc(NC(=O)c3c(F)cccc3F)c3ccccc23)CC1 [Compound C-109, N-[4-(1-Butyryl-piperidin-4-ylsulfamoyl)-naphthalen-1-yl]-2,6-difluoro-benzamide] | < 1000
CCNC(=O)N1CCC(NS(=O)(=O)c2ccc(NC(=O)c3ccccc3C)c3c2CCC3)CC1 [Compound H-69, 4-[7-(2-Methyl-benzoylamino)-indane-4-sulfonylamino]-piperidine-1-carboxylic acid ethylamide] | < 500
O=C(Nc1ccc(S(=O)(=O)NC2CCNCC2)c2ccccc12)C1CCC1 [Compound D-13, Cyclobutanecarboxylic acid [4-(piperidin-4-ylsulfamoyl)-naphthalen-1-yl]-amide] | < 30000
CCN(CC)C(=O)N1CCC(NS(=O)(=O)c2ccc(NC(=O)c3ccccc3C)c3ccccc23)CC1 [Compound C-42, 4-[4-(2-Methyl-benzoylamino)-naphthalene-1-sulfonylamino]-piperidine-1-carboxylic acid diethylamide] | < 500
CCc1ccc(NS(=O)(=O)c2ccc3cccc(NC(=O)c4ccccc4)c3c2)cc1 [Compound H-49, N-[7-(4-Ethyl-phenylsulfamoyl)-naphthalen-1-yl]-benzamide] | < 30000
Cc1ccccc1C(=O)Nc1ccc(S(=O)(=O)NC2CCN(C(=O)N(C)C)C2)c2c1CCC2 (racemic) [Compound H-73, (±)-3-[7-(2-Methyl-benzoylamino)-indane-4-sulfonylamino]-pyrrolidine-1-carboxylic acid dimethylamide] | < 1000
CCN(CC)CC(=O)N1CC[C@@H](NS(=O)(=O)c2ccc(NC(=O)c3ccccc3C)c3ccccc23)[C@@H](C)C1 (racemic) [Compound C-144, (±)-N-{4-[1-(2-diethylamino-acetyl)-3-cis-methyl-piperidin-4-ylsulfamoyl]-naphthalen-1-yl}-2-methyl-benzamide] | < 30000
CCNC(=O)N1CC[C@H](NS(=O)(=O)c2ccc(NC(=O)c3ccccc3C)c3ccccc23)[C@@H](C)C1 (racemic) [Compound C-16, (±)-trans-3-Methyl-4-[4-(2-methyl-benzoylanlino)-naphthalene-1-sulfonylamino]-piperidine-1-carboxylic acid ethylaiide] | < 500
COc1ccc(NS(=O)(=O)c2ccc(NC(=O)c3cccc(OC)c3)c3ccccc23)cc1 [Compound B-5, 3-Methoxy-N-[4-(4-methoxy-phenylsulfamoyl)-naphthalen-1-yl]-benzamide] | < 1000
CCOC(=O)[C@@H]1CN(Cc2ccccc2)CC[C@@H]1NS(=O)(=O)c1ccc(NC(=O)c2ccccc2C)c2ccccc12 (racemic) [Compound A-47, (±)-(cis)-1-Benzyl-4-[4-(2-methyl-benzoylamino)-naphthalene-1-sulfonylamino]-piperidine-3-carboxylic acid ethyl ester] | < 30000
CCCC(=O)N1CCC(NS(=O)(=O)c2ccc(NC(=O)c3ccccc3OC)c3ccccc23)CC1 [Compound C-104, N-[4-(1-Butyryl-piperidin-4-ylsulfamoyl)-naphthalen-1-yl]-2-methoxy-benzamide] | < 500
Cc1ccccc1NC(=O)c1cccc2c(S(=O)(=O)NC3CCN(C(=O)N(C)C)CC3)cccc12 [Compound H-32, 4-(5-o-Tolylcarbamoyl-naphthalene-1-sulfonylamino)-piperidine-1-carboxylic acid dimethylamide] | < 500
CCCC(=O)N1CC[C@H](NS(=O)(=O)c2ccc(NC(=O)c3cccnc3C)c3ccccc23)[C@H](C)C1 (racemic) [Compound D-3, (±)-(cis)-N-[4-(1-Butyryl-3-methyl-piperidin-4-ylsulfamoyl)-naphthalen-1-yl]-2-methyl-nicotinamide] | < 500
Cc1ccccc1C(=O)Nc1ccc(S(=O)(=O)NC2CCN(C(=O)[C@H](C)N)CC2)c2ccccc12 [Compound C-120, (S)-N-{4-[1-(2-Amino-propionyl)-piperidin-4-ylsulfamoyl]-naphthalen-1-yl}-2-methyl-benzamide] | < 500
